Values quoted from earlier work in patent publication US20130266557A1, “METHODS FOR TREATMENT OF A SARCOMA USING AN EPIMETABOLIC SHIFTER (COENZYME Q10)” (priority 2009, published 2013).

Test system: cancer
Settings: Mazzio 2006; cited from earlier work

COC1=C(OC)C(=O)C(C)=CC1=O [DMBQ, 2,3-dimethoxy-5-methyl-1,4-benzoquinone, reference compound]
Potency as an anti-cancer agent relative to CoQ10: > 1000 times
